{"source": "patent US8653110B2", "about": "“Active compound combination comprising azadirachtin and a substituted enaminocarbonyl compound” (Bayer CropScience AG, priority 2010, dated 2014)", "test_system": "Diabrotica balteata", "assay": "Diabrotica balteata test, larvae in soil (Example 4)", "assay_type": "in vivo", "conditions": "soil treatment, maize, (I-1) 60 g of ai/ha, Azadirachta indica 20%, combination 60 g + 20%", "method": "• Solvent: 4 parts by weight of acetone • Emulsifier: 1 part by weight of alkylaryl polyglycol ether\nThe active compound preparation was mixed with soil. […] The treated soil is filled into pots, and 5 maize corns are placed into each pot. 3 days after sowing, larvae of the corn rootworm (Diabrotica balteata) are placed into the treated soil.\nThe efficacy is calculated from the number of maize plants that have emerged.", "data": [{"smiles": "O=C1C=C(N(Cc2ccc(Cl)nc2)CC(F)F)CO1", "note": "[(I-1), 4-{[(6-chloropyrid-3-yl)methyl](2,2-difluoroethyl)amino}furan-2(5H)-one]", "values": [{"measurement": "Kill in % after 5d (found)", "value": 75, "unit": "%"}]}]}
